Data from patent US9719191B2, “Methods for identifying ligands that target nucleic acid molecules and nucleic acid structural motifs” (The Research Foundation for The State University of New York, priority 2006, dated 2017).
Like-named read-outs stand apart in the source and are kept apart here. Blank lines part the entries; values can stand above or below the compound they belong to.

Assays:
[1] = tested on: oligonucleotide mimic of the bacterial rRNA A-site; conditions: 6′ NH2 acetylated; cited from earlier work
[2] = molecular target: pool of RNAs harvested from position 1+; assay: Fluorescence-based direct binding assay with 21-FL; conditions: higher ligand loading position 1+
[3] = molecular target: DNA chase oligonucleotides 25+26; assay: Fluorescence-based direct binding assay with 21-FL; conditions: no change in fluorescence intensity up to 5 μM
[4] = molecular target: chase oligonucleotide 23 (stem mimic duplex); assay: Fluorescence-based direct binding assay with 21-FL; conditions: no change in fluorescence intensity up to 5 μM
IL 34 = assay: Competitive binding assay against 21-FL; conditions: competition with 10 nM 21-FL, 75 nM IL 34
Protocol: (§1) To determine if selected loops have aminoglycoside preferences, the binding of five aminoglycosides, 21, kanamycin A, kanamycin B, tobramycin, and neamine (FIG. 7) to the pool of RNAs from spot 2+ (FIG. 10C) was probed using a competitive binding assay. […] We also tested a single RNA sequence identified to bind 21, IL 34, in the same manner.
(§2) A solution containing 75 nM IL 34 was refolded in 1× hybridization buffer+40 μg/mL BSA at 60° C. for 5 min. After slow cooling on the benchtop, 21-FL was added to a final concentration of 10 nM. The competing, unlabeled aminoglycoside was then added, and the resulting solution was serially diluted into 1× hybridization buffer+40 μg/mL BSA+10 nM 21-FL containing 75 nM IL 34. The solutions were equilibrated for 30 min at RT, and the fluorescence intensities were measured on a Bio-Tek HT fluorescence plate reader.

[5] = molecular target: pool of RNAs from spot 2+; assay: Competitive binding assay against 21-FL; conditions: for Kd: competition with 10 nM 21-FL
Protocol: as §1, §2

empty cassette RNA 27 = assay: Fluorescence-based direct binding assay with 21-FL
[6] = tested on: RNA internal loop library 22; conditions: chase oligonucleotides 23-26 in excess
tRNAphe = assay: Fluorescence-based direct binding assay with 21-FL
IL 7 = conditions: RNase A and S1 nuclease, compound 0, 0.1, 1, 10, 100 μM
Protocol: (§3) The binding site of 2 was determined by enzymatic probing of IL 7 and R4 in the presence or absence of 2 with RNase A and S1 nuclease.
(§4) The binding site(s) of 2 was determined using a nuclease protection assay. For RNase A mapping experiments, radiolabeled oligonucleotide was annealed as described above. After slow cooling, serially diluted concentrations of 2 were added, and the resulting solution was allowed to equilibrate for 30 min at RT. Approximately 6 μunits of RNase A were added, and the reaction was allowed to proceed for 10 min. The reaction was quenched by addition of an equal volume of stop buffer, and the products were separated on a denaturing 17% polyacrylamide gel.
(§5) For S1 nuclease mapping experiments, the radiolabeled oligonucleotide was annealed as described except the buffer used was 50 mM sodium acetate (pH 4.5), 280 mM NaCl, and 4.5 mM ZnSO4. The solution was allowed to equilibrate for 30 min at RT after the addition of serially diluted concentrations of 2, and then 10 units of S1 were added. The reaction was quenched after 10 min at RT, and the products were separated on a denaturing 17% polyacrylamide gel.

hairpin cassette R4 = conditions: RNase A and S1 nuclease, compound 0, 0.1, 1, 10, 100 μM
Protocol: as §3, §4, §5

[7] = molecular target: pool of RNAs harvested from position 2+; assay: Fluorescence-based direct binding assay with 21-FL; conditions: lower ligand loading position 2+
IL 16 = conditions: in presence of 2
Protocol: as §3

IL 1 = conditions: in presence of 2
Protocol: as §3

[8] = molecular target: chase oligonucleotide 24 (GAAA hairpin mimic); assay: Fluorescence-based direct binding assay with 21-FL; conditions: no change in fluorescence intensity up to 5 μM
[9] = molecular target: RNA internal loop library 22; assay: Fluorescence-based direct binding assay with 21-FL; conditions: entire library
[10] = tested on: RNA 3×3 internal loop library (R1); assay: Resin-based selection of RNA internal loops with immobilized kanamycin A; format: binding; conditions: based on initial radioactivity eluted with kanamycin A; about 150 members
Protocol: Selections were completed by incubating a solution that contained 5′ end ^32P-labeled R1 in buffer with resin-immobilized kanamycin A. In addition to R1, a variety of other oligonucleotides were added to the incubation solution (R2-R4, D1, D2). […] The small number may be due to the manner in which the ligand was immobilized onto the resin (impairs the 6′ amino group from forming stabilizing contacts with RNA).
Each of the oligonucleotides was refolded separately in Hybridization Buffer (“HB”) containing 8 mM […] pH 7.0, 1 mM EDTA, and 185 mM NaCl by heating for 5 min at 65° C. and then cooling to RT on the benchtop. Oligonucleotides were then transferred to 4° C. and mixed together. Before the oligonucleotides were hybridized with the resin, 200 μg of BSA was added to the samples. Each selection experiment was completed with 10 picomoles of 5′-end labeled R1 and 20-fold higher concentration of each control oligonucleotide (R2-R4, D1, D2) over the concentration of R1.
A 100 μL aliquot of resin slurry (10 μL of resin) was placed into a 2.5 mL BioRad column and washed 3× with 1 mL of 4° C. HB. […] At this stage, liquid scintillation counting was used to ensure that only background radioactivity was being eluted from the column. […]

[11] = molecular target: 1×1 CC internal loop derived from the untranslated region in thymidylate synthase mRNA; conditions: 1 mM MgCl2 and CaCl2, 150 mM NaCl, 5 mM KCl, 20 mM HEPES (pH 7.5); read-out: dissociation constant; cited from earlier work
[12] = tested on: immobilized 6′-N-5-hexynoate kanamycin A (2) / radiolabeled IL 7; assay: Array-based competitive binding assay: competitor RNA against trace 32P-labeled IL 7 on immobilized 2; conditions: for IC50: read-out: IC50 (concentration of competitor that inhibited 50% of the binding of radioactively labeled IL 7), competitor RNA, immobilized 2 in microwells, 30 min at RT
Description: Typically microarray experiments can be used to probe the binding of a variety of small molecules to a single or a few analytes at once. In order to increase the number of conditions that can be probed on a single array, we affixed a silicon gasket that created 50 microwells on the surface of each chip (FIG. 5A). These microwells converted the array into a miniaturized 50-well plate that is easily functionalized to display kanamycin. Compound 2 was immobilized in each microwell at a constant concentration. Binding experiments were completed by delivering 10 μL of a solution containing serially diluted concentrations of the internal loop of interest and trace 5′end ^32P labeled IL 7 into each microwell. Dose response curves were constructed and fit to determine the concentration of competitor that inhibited 50% of the binding of the radioactively labeled RNA (FIG. 3, FIG. 5B, and FIG. 5C). FIG. 5B is a representative autoradiogram for binding selected RNAs relative to binding of control oligonucleotides R2, R3, D1 and D2, and R4, the cassette without an internal loop.
In order to determine which concentration of 2 was optimal for competitive binding assays, serially diluted 2 was applied to the chip surface and allowed to react for 2 h at RT inside the microwell of a silicon gasket (GRACE Biolabs, CWCS 50R-1.0, C-24780) (FIG. 5A). Each of the wells was washed twice with water, and the slide was dried in air. The 5′ end ^32P radiolabeled IL 7 was annealed in 1×HB+40 μg/mL of BSA at 60° C. for 5 min and allowed to slow cool on the benchtop for 10 min. It is important to note that the hybridization buffer contains 1 mM EDTA, or 50 equivalents compared to the amount of Cu^2+ used for the click reaction. […] The annealed RNA oligonucleotide was hybridized with the chip surface for 30 min at RT. […]
IC50's were determined by incubating serially diluted competitor RNA and trace radiolabeled IL 7 in microwells formed using a silicon gasket. […] The data were quantified using Bio-Rad's QuantityOne software, and the IC50's were determined using SigmaPlot's four-parameter logistical curve fit.

[13] = listed as 6′ hexynoate kanamycin A

Compound: CC(=O)NCC1OC(OC2C(N)CC(N)C(OC3OC(CO)C(O)C(N)C3O)C2O)C(O)C(O)C1O (stereo not drawn) [6′ acetylated kanamycin A]
reduction in binding relative to the parent aminoglycoside [1]: several orders of magnitude

Kd [2]: 65 nM
Kd [3]: > 5000 nM
Kd [4]: > 5000 nM
Kd (IL 34; read-out: Kd): 7 nM
Kd [5]: 12 nM
Kd (empty cassette RNA 27): 1300 nM
binding of library members on the array [6]: concentration-dependent binding
Kd (tRNAphe): 700 nM
Kd [7]: 11 nM
Kd [8]: > 5000 nM
Kd [9]: 280 nM
Compound: C#CCCCC(=O)NC[C@@H]1O[C@@H](O[C@H]2[C@H](O)[C@@H](O[C@@H]3O[C@@H](CO)[C@H](O)[C@@H](N)[C@@H]3O)[C@H](N)C[C@@H]2N)[C@@H](O)[C@H](O)[C@H]1O [Compound 21, 6′-N-5-hexynoate kanamycin A]
nucleotides protected from cleavage (IL 7; listed as 2): only nucleotides in the loop and the surrounding base pairs in IL 7 are protected from cleavage
nucleotides protected from cleavage (IL 7; [13]): occurs only in the randomized regions
nucleotides protected from cleavage (hairpin cassette R4; listed as 2): No nucleotides in the cassette R4 are protected
nucleotides protected from cleavage (hairpin cassette R4; [13]): no nucleotides are protected from modification
DEPC modification of loop nucleotides (IL 16): decreased modification
DEPC modification of loop nucleotides (IL 1): decreased modification

Kd (IL 34; read-out: Kd): 5 nM
Kd [5]: 9 nM
Compound: NC[C@H]1O[C@H](O[C@H]2[C@H](O)[C@@H](O[C@H]3O[C@H](CO)[C@@H](O)[C@H](N)[C@H]3O)[C@H](N)C[C@@H]2N)[C@H](O)[C@@H](O)[C@@H]1O [kanamycin A]
percentage of the 4096-member library bound to immobilized ligand [10]: ~4%

Compound: NC[C@H]1O[C@H](O[C@H]2[C@H](O)[C@@H](O[C@H]3O[C@H](CO)[C@@H](O)[C@H](N)[C@H]3O)[C@H](N)C[C@@H]2N)[C@H](N)[C@@H](O)[C@@H]1O [kanamycin B]
Kd [11]: 1100 nM
Kd (IL 34; read-out: Kd): 5 nM
Kd [5]: 12 nM

Compound: NC[C@H]1O[C@H](O[C@H]2[C@H](O)[C@@H](O)[C@H](N)C[C@@H]2N)[C@H](N)[C@@H](O)[C@@H]1O [neamine]
Kd (IL 34): much weaker
Kd [5]: > 500 nM

Kd (IL 34): much weaker
Kd [5]: 85 nM
fold weaker binding ([5]; relative to 21, kanamycin A and kanamycin B): approximately 9 fold
Compound: NC[C@H]1O[C@H](O[C@H]2[C@H](O)[C@@H](O[C@H]3O[C@H](CO)[C@@H](O)[C@H](N)[C@H]3O)[C@H](N)C[C@@H]2N)[C@H](N)C[C@@H]1O [tobramycin]
Kd [11]: 870 nM

Compound: IL 1: selected RNA internal loop (SEQ ID NO:12), 5′UU/3′UC 2×2 loop closed by A-U pairs (GGGAGAGGGUUUAAUUUUUACGAAAGUAACUAUUGGAUCCGCAAGG; listed as RNA, chemistry not given here)
IC50 [12]: 2.2 nM

Compound: IL 2: selected RNA internal loop (SEQ ID NO:13), 5′UU/3′UC 2×2 loop, one closing A-U pair in different orientation (GGGAGAGGGUUUAAUAUCUACGAAAGUAUUUAUUGGAUCCGCAAGG; listed as RNA, chemistry not given here)
IC50 [12]: 3.3 nM

Compound: IL 17: selected RNA internal loop (SEQ ID NO:14 series; SEQ ID NO:28), U replaced with C and closing pair GC (GGGAGAGGGUUUAAUCUUUACGAAAGUACCGAUUGGAUCCGCAAGG; listed as RNA, chemistry not given here)
fold weaker binding relative to IL 1 and IL 2 [12]: ~10 fold
